Measurements reported in patent US10323022B2, “Pyrrolidinyl urea, pyrrolidinyl thiourea and pyrrolidinyl guanidine compounds as TrkA kinase inhibitors” (Array BioPharma Inc., priority 2011, dated 2019).
Structures can show the parent of a compound that is named as a salt.

Target: TrkA (Homo sapiens (Human), UniProt P04629)
Assay: TrkA Omnia Assay
Assay type: biochemical
Settings: averaged IC50; 20 nM enzyme, 500 μM ATP, 10 μM peptide substrate
How it was run: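 Recombinant TrkA (20 nM) preincubated 10 min at ambient temperature with compound, then Omnia Tyr Peptide #4 (10 μM) and ATP (500 μM) added in 25 mM MOPS pH 7.5, 5 mM MgCl2, 0.005% Triton X-100. Fluorescence (ex 360/em 485 nm) followed continuously for 70 min; IC50 from initial rates by 4- or 5-parameter logistic fit.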

Sequence of TrkA (P04629 33-796): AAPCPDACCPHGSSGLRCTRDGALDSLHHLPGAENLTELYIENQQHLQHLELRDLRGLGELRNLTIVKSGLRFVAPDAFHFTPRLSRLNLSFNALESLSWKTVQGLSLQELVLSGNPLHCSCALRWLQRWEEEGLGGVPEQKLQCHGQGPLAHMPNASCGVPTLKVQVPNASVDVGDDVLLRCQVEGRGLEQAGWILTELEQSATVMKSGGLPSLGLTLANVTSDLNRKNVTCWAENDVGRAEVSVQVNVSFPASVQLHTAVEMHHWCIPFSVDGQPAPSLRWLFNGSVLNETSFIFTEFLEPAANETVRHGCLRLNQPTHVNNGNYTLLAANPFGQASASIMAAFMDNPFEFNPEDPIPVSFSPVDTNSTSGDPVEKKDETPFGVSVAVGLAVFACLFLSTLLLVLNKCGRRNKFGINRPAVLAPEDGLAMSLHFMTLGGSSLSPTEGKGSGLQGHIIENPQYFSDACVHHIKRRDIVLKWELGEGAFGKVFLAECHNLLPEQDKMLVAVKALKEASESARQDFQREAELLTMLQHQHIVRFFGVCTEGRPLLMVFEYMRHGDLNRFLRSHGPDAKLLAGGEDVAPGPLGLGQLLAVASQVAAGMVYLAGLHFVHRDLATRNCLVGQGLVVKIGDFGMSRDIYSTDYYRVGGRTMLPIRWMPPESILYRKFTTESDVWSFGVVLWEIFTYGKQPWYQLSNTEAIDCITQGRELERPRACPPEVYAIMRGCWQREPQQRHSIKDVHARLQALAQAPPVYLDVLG

SMILES | IC50 [nM]
COCCN1C[C@@H](NC(=O)Nc2c(C)c(OC[C@H](C)O)nn2-c2ccccc2)[C@H](c2cc(F)cc(F)c2)C1 [Example 537, 1-((3S,4R)-4-(3,5-difluorophenyl)-1-(2-methoxyethyl)pyrrolidin-3-yl)-3-(3-((S)-2-hydroxypropoxy)-4-methyl-1-phenyl-1H-pyrazol-5-yl)urea dihydrochloride] | < 100
COCCN1C[C@@H](NC(=O)Nc2c(C)c(OCCN3CCNCC3)nn2-c2ccccc2)[C@H](c2ccc(F)c(F)c2)C1 [Example 538, 1-((3S,4R)-4-(3,5-difluorophenyvl)-1-(2-methoxyethyl)pyrrolidin-3-yl)-3-(4-methyl-1-phenyl-3-(2-(piperazin-1-yl)ethoxy)-1H-pyrazol-5-yl)urea trihydrochloride] | < 100
COCCN1C[C@@H](NC(=O)Nc2c(Cl)c(OCc3ccccc3)nn2C)[C@H](c2ccc(F)c(F)c2)C1 [Example 539, 1-(3-(benzyloxy)-4-chloro-1-methyl-1H-pyrazol-5-yl)-3-((3S,4R)-4-(3,4-difluorophenyl)-1-(2-methoxyethyl)pyrrolidin-3-yl)urea] | 100 to 1000
COCCN1C[C@@H](NC(=O)Nc2c(C)c(OCC(=O)O)nn2-c2ccccc2)[C@H](c2ccc(F)c(F)c2)C1 [Example 540, 2-((5-(3-((3S,4R)-4-(3,4-difluorophenyl)-1-(2-methoxyethyl)pyrrolidin-3-yl)ureido)-4-methyl-1-phenyl-1H-pyrazol-3-yl)oxy)acetic acid] | < 100
CCNC(=O)COc1nn(-c2ccccc2)c(NC(=O)N[C@@H]2CN(CCOC)C[C@H]2c2ccc(F)c(F)c2)c1C [Example 541, 2-((5-(3-((3S,4R)-4-(3,4-difluorophenyl)-1-(2-methoxyethyl)pyrrolidin-3-yl)ureido)-4-methyl-1-phenyl-1H-pyrazol-3-yl)oxy)-N-ethylacetamide] | < 100
CCc1c(OCC(C)(C)O)nn(-c2ccccc2)c1NC(=O)N[C@@H]1CN(CCOC)C[C@H]1c1ccc(F)c(F)c1 [Example 542, 1-((3S,4R)-4-(3,4-difluorophenyvl)-1-(2-methoxyethyl)pyrrolidin-3-yl)-3-(4-ethyl-3-(2-hydroxy-2-methylpropoxy)-1-phenyl-1H-pyrazol-5-yl)urea] | < 100
COCCN1C[C@@H](NC(=O)Nc2c(C)c(OCCN)nn2-c2ccccc2)[C@H](c2ccc(F)c(F)c2)C1 [Example 543, 1-(3-(2-aminoethoxy)-4-methyl-1-phenyl-1H-pyrazol-5-yl)-3-((3S,4R)-4-(3,4-difluorophenyl)-1-(2-methoxyethyl)pyrrolidin-3-yl)urea] | < 100
COCCN1C[C@@H](NC(=O)Nc2c(C)c(OCCNS(C)(=O)=O)nn2-c2ccccc2)[C@H](c2ccc(F)c(F)c2)C1 [Example 544, N-(2-((5-(3-((3S,4R)-4-(3,4-difluorophenyl)-1-(2-methoxyethyl)pyrrolidin-3-yl)ureido)-4-methyl-1-phenyl-1H-pyrazol-3-yl)oxy)ethyl)methanesulfonamide] | < 100
COCCN1C[C@@H](NC(=O)Nc2c(C)c(OCCNC(C)=O)nn2-c2ccccc2)[C@H](c2ccc(F)c(F)c2)C1 [Example 545, N-(2-((5-(3-((3S,4R)-4-(3,4-difluorophenyl)-1-(2-methoxyethyl)pyrrolidin-3-yl)ureido)-4-methyl-1-phenyl-1H-pyrazol-3-yl)oxy)ethyl)acetamide] | < 100
COCCN1C[C@@H](NC(=O)Nc2c(C)c(OCCN3CCN(C(C)=O)CC3)nn2-c2ccccc2)[C@H](c2ccc(F)c(F)c2)C1 [Example 546, 1-(3-(2-(4-acetylpiperazin-1-yl)ethoxy)-4-methyl-1-phenyl-1H-pyrazol-5-yl)-3-((3S,4R)-4-(3,4-difluorophenyl)-1-(2-methoxyethyl)pyrrolidin-3-yl)urea] | < 100
COCCN1C[C@@H](NC(=O)Nc2c(C)c(OCC(N)=O)nn2-c2ccccc2)[C@H](c2ccc(F)c(F)c2)C1 [Example 547, 2-((5-(3-((3S,4R)-4-(3,4-difluorophenyl)-1-(2-methoxyethyl)pyrrolidin-3-yl)ureido)-4-methyl-1-phenyl-1H-pyrazol-3-yl)oxy)acetamide] | < 100
CCOc1nn(-c2ccccc2)c(NC(=O)N[C@@H]2CN(CCOC)C[C@H]2c2ccc(F)c(F)c2)c1NC(=O)C(F)(F)F [Example 548, N-(5-(3-((3S,4R)-4-(3,4-difluorophenyl)-1-(2-methoxyethyl)pyrrolidin-3-yl)ureido)-3-ethoxy-1-phenyl-1H-pyrazol-4-yl)-2,2,2-trifluoroacetamide] | 100 to 1000
CCOc1nn(-c2ccccc2)c(NC(=O)N[C@@H]2CN(CCOC)C[C@H]2c2ccc(F)c(F)c2)c1N [Example 549, 1-(4-amino-3-ethoxy-1-phenyl-1H-pyrazol-5-yl)-3-((3S,4R)-4-(3,4-difluorophenyl)-1-(2-methoxyethyl)pyrrolidin-3-yl)urea] | < 100
CCOc1nn(-c2ccccc2)c(NC(=O)N[C@@H]2CN(CCOC)C[C@H]2c2ccc(F)c(F)c2)c1CCO [Example 550, 1-((3S,4R)-4-(3,4-difluorophenyvl)-1-(2-methoxyethyl)pyrrolidin-3-yl)-3-(3-ethoxy-4-(2-hydroxyethyl)-1-phenyl-1H-pyrazol-5-yl)urea] | < 100
COCCN1C[C@@H](NC(=O)Nc2c(C)c(OCCN3CCN(C)CC3)nn2-c2ccccc2)[C@H](c2ccc(F)c(F)c2)C1 [Example 551, 1-((3S,4R)-4-(3,4-difluorophenyl)-1-(2-methoxyethyl)pyrrolidin-3-yl)-3-(4-methyl-3-(2-(4-methylpiperazin-1-yl)ethoxy)-1-phenyl-1H-pyrazol-5-yl)urea trihydrochloride] | < 100
COCCN1C[C@@H](NC(=O)Nc2c(C)c(OCC(=O)N3CCOCC3)nn2-c2ccccc2)[C@H](c2ccc(F)c(F)c2)C1 [Example 552, 1-((3S,4R)-4-(3,4-difluorophenyvl)-1-(2-methoxyethyl)pyrrolidin-3-yl)-3-(4-methyl-3-(2-morpholino-2-oxoethoxy)-1-phenyl-1H-pyrazol-5-yl)urea] | < 100
COCCN1C[C@@H](NC(=O)Nc2c(Br)c(C(=O)O)nn2-c2ccccc2)[C@H](c2ccc(F)c(F)c2)C1 [Example 553, 4-bromo-5-(3-((3S,4R)-4-(3,4-difluorophenyl)-1-(2-methoxyethyl)pyrrolidin-3-yl)ureido)-1-phenyl-1H-pyrazole-3-carboxylic acid] | 100 to 1000
CNC(=O)c1nn(-c2ccccc2)c(NC(=O)N[C@@H]2CN(CCOC)C[C@H]2c2ccc(F)c(F)c2)c1Br [Example 554, 4-bromo-5-(3-((3S,4R)-4-(3,4-difluorophenyl)-1-(2-methoxyethyl)pyrrolidin-3-yl)ureido)-N-methyl-1-phenyl-1H-pyrazole-3-carboxamide] | < 100
COCCN1C[C@@H](NC(=O)Nc2c(Br)c(C(=O)NOC)nn2-c2ccccc2)[C@H](c2ccc(F)c(F)c2)C1 [Example 555, 4-bromo-5-(3-((3S,4R)-4-(3,4-difluorophenyl)-1-(2-methoxyethyl)pyrrolidin-3-yl)ureido)-N-methoxy-1-phenyl-1H-pyrazole-3-carboxamide] | < 100
COCCN1C[C@@H](NC(=O)Nc2c(Cl)c(-c3cnn(CCOC)c3)nn2-c2ccccc2)[C@H](c2ccc(F)c(F)c2)C1 [Example 556, 1-(4-chloro-1′-(2-methoxyethyl)-1-phenyl-1H, 1′H-[3,4′-bipyrazol]-5-yl)-3-((3S,4R)-4-(3,4-difluorophenyl)-1-(2-methoxyethyl)pyrrolidin-3-yl)urea] | < 100
COCCN1C[C@@H](NC(=O)Nc2c(C)c(OC[C@@H](O)CO)nn2-c2ccccc2)[C@H](c2cc(F)cc(F)c2)C1 [Example 557, 1-((3S,4R)-4-(3,5-difluorophenyl)-1-(2-methoxyethyl)pyrrolidin-3-yl)-3-(3-((S)-2,3-dihydroxvpropoxy)-4-methyl-1-phenyl-1H-pyrazol-5-yl)urea] | < 100
COCCN1C[C@@H](NC(=O)Nc2c(C)c(OC[C@H](O)CO)nn2-c2ccccc2)[C@H](c2cc(F)cc(F)c2)C1 [Example 558, 1-((3S,4R)-4-(3,5-difluorophenyl)-1-(2-methoxyethyl)pyrrolidin-3-yl)-3-(3-((R)-2,3-dihydroxypropoxy)-4-methyl-1-phenyl-1H-pyrazol-5-yl)urea] | < 100
COCCN1C[C@@H](NC(=O)Nc2c(C)c(OC[C@H](O)CO)nn2-c2ccccc2)[C@H](c2cc(F)c(F)c(F)c2)C1 [Example 559, 1-(3-((R)-2,3-dihydroxvpropoxy)-4-methyl-1-phenyl-1H-pyrazol-5-yl)-3-((3S,4R)-1-(2-methoxyethyl)-4-(3,4,5-trifluorophenyl)pyrrolidin-3-yl)urea] | < 100
COCCN1C[C@@H](NC(=O)Nc2c(C)c(OC[C@@H](O)CO)nn2-c2ccccc2)[C@H](c2cc(F)c(F)c(F)c2)C1 [Example 560, 1-(3-((S)-2,3-dihydroxvpropoxy)-4-methyl-1-phenyl-1H-pyrazol-5-yl)-3-((3S,4R)-1-(2-methoxyethyl)-4-(3,4,5-trifluorophenyl)pyrrolidin-3-yl)urea] | < 100
COCCN1C[C@@H](NC(=O)Nc2c(C)c(OC[C@H](C)O)nn2-c2ccccc2)[C@H](c2cc(F)c(F)c(F)c2)C1 [Example 561, 1-(3-((S)-2-hydroxypropoxy)-4-methyl-1-phenyl-1H-pyrazol-5-yl)-3-((3S,4R)-1-(2-methoxyethyl)-4-(3,4,5-trifluorophenyl)pyrrolidin-3-yl)urea] | < 100
COCCN1C[C@@H](NC(=O)Nc2c(C)c(OC[C@@H](O)COC)nn2-c2ccccc2)[C@H](c2ccc(F)c(F)c2)C1 [Example 562, 1-((3S,4R)-4-(3,4-difluorophenyl)-1-(2-methoxyethyl)pyrrolidin-3-yl)-3-(3-((S)-2-hydroxy-3-methoxypropoxy)-4-methyl-1-phenyl-1H-pyrazol-5-yl)urea] | < 100
